± gives the uncertainty stated by the source.
Assay: xn = mol fraction of the nth substance listed

CCCCCCCCCCCCBr + BrC(Br)C(Br)Br
101 kPa
Conditions	viscosity [mPa·s]
298.08 K, x1 = 0.1586	7.196 ± 0.18
298.08 K, x1 = 0.3004	5.936 ± 0.15
298.08 K, x1 = 0.4493	5.091 ± 0.13
298.08 K, x1 = 0.6166	4.392 ± 0.11
298.08 K, x1 = 0.7772	3.877 ± 0.099
303.1 K, x1 = 0.1376	6.506 ± 0.17
303.1 K, x1 = 0.2855	5.399 ± 0.14
303.1 K, x1 = 0.4255	4.58 ± 0.12
303.1 K, x1 = 0.6541	3.787 ± 0.097
303.1 K, x1 = 0.7773	3.437 ± 0.088
308.11 K, x1 = 0.1363	5.669 ± 0.14
308.11 K, x1 = 0.289	4.673 ± 0.12
308.11 K, x1 = 0.4415	4.027 ± 0.1
308.11 K, x1 = 0.6215	3.498 ± 0.09
308.11 K, x1 = 0.7595	3.147 ± 0.081
313.11 K, x1 = 0.1456	5.011 ± 0.13
313.11 K, x1 = 0.2924	4.238 ± 0.11
313.11 K, x1 = 0.4286	3.667 ± 0.094
313.11 K, x1 = 0.634	3.093 ± 0.079
313.11 K, x1 = 0.782	2.781 ± 0.071

CCOC(C)=O + C1CCCCC1
viscosity [mPa·s], 101 kPa
Conditions	298.15 K	308.15 K
x1 = 0.0548	0.841 ± 0.085	0.706 ± 0.071
x1 = 0.1549	0.765 ± 0.077	0.63 ± 0.063
x1 = 0.2552	0.7 ± 0.07	0.569 ± 0.057
x1 = 0.3558	0.643 ± 0.065	0.52 ± 0.052
x1 = 0.4539	0.595 ± 0.06	0.481 ± 0.048
x1 = 0.4998	0.575 ± 0.058	0.466 ± 0.047
x1 = 0.5513	0.554 ± 0.056	0.451 ± 0.045
x1 = 0.6549	0.516 ± 0.052	0.426 ± 0.043
x1 = 0.7515	0.486 ± 0.049	0.408 ± 0.041
x1 = 0.8531	0.458 ± 0.046	0.395 ± 0.04
x1 = 0.9536	0.435 ± 0.044	0.387 ± 0.039

CCOc1ccccc1 + C1CCOC1
viscosity [mPa·s], 101.33 kPa
Conditions	x1 = 0.031	x1 = 0.072	x1 = 0.117	x1 = 0.197	x1 = 0.246	x1 = 0.326	x1 = 0.492	x1 = 0.695	x1 = 0.899
298 K	0.475 ± 0.011	0.493 ± 0.011	0.515 ± 0.012	0.555 ± 0.013	0.581 ± 0.013	0.627 ± 0.014	0.736 ± 0.016	0.891 ± 0.02	1.067 ± 0.023
303 K	0.451 ± 0.011	0.468 ± 0.011	0.487 ± 0.011	0.524 ± 0.012	0.547 ± 0.012	0.587 ± 0.013	0.684 ± 0.015	0.824 ± 0.018	0.985 ± 0.022
308 K	0.431 ± 0.01	0.447 ± 0.01	0.464 ± 0.011	0.496 ± 0.011	0.518 ± 0.012	0.554 ± 0.013	0.642 ± 0.014	0.766 ± 0.017	0.908 ± 0.02

CCOC(C)=O + C1COCCO1
Conditions	viscosity [mPa·s]
303.15 K, 101 kPa, x2 = 0.1021	0.435 ± 0.005
303.15 K, 101 kPa, x2 = 0.2024	0.466 ± 0.005
303.15 K, 101 kPa, x2 = 0.2982	0.505 ± 0.005
303.15 K, 101 kPa, x2 = 0.4026	0.553 ± 0.006
303.15 K, 101 kPa, x2 = 0.4968	0.602 ± 0.006
303.15 K, 101 kPa, x2 = 0.6025	0.668 ± 0.007
303.15 K, 101 kPa, x2 = 0.697	0.742 ± 0.007
303.15 K, 101 kPa, x2 = 0.8007	0.834 ± 0.008
303.15 K, 101 kPa, x2 = 0.9003	0.948 ± 0.009
303.15 K, 101.32 kPa, x1 = 0.0451	1.02 ± 0.03
303.15 K, 101.32 kPa, x1 = 0.0948	0.948 ± 0.024
303.15 K, 101.32 kPa, x1 = 0.1332	0.901 ± 0.023
303.15 K, 101.32 kPa, x1 = 0.1779	0.848 ± 0.022
303.15 K, 101.32 kPa, x1 = 0.2236	0.802 ± 0.021
303.15 K, 101.32 kPa, x1 = 0.3187	0.717 ± 0.019
303.15 K, 101.32 kPa, x1 = 0.4176	0.648 ± 0.017
303.15 K, 101.32 kPa, x1 = 0.467	0.616 ± 0.016
303.15 K, 101.32 kPa, x1 = 0.5155	0.59 ± 0.015
303.15 K, 101.32 kPa, x1 = 0.6182	0.539 ± 0.014
303.15 K, 101.32 kPa, x1 = 0.7243	0.497 ± 0.013
303.15 K, 101.32 kPa, x1 = 0.8297	0.456 ± 0.012
303.15 K, 101.32 kPa, x1 = 0.9411	0.422 ± 0.011
308.15 K, 101 kPa, x2 = 0.1	0.439 ± 0.006
308.15 K, 101 kPa, x2 = 0.2	0.475 ± 0.006
308.15 K, 101 kPa, x2 = 0.3	0.506 ± 0.007
308.15 K, 101 kPa, x2 = 0.4	0.542 ± 0.007
308.15 K, 101 kPa, x2 = 0.5	0.58 ± 0.008
308.15 K, 101 kPa, x2 = 0.6	0.625 ± 0.008
308.15 K, 101 kPa, x2 = 0.8	0.756 ± 0.01
308.15 K, 101 kPa, x2 = 0.9	0.852 ± 0.011
313.15 K, 101.32 kPa, x1 = 0.209	0.717 ± 0.019
313.15 K, 101.32 kPa, x1 = 0.405	0.583 ± 0.015
313.15 K, 101.32 kPa, x1 = 0.5144	0.528 ± 0.014
313.15 K, 101.32 kPa, x1 = 0.602	0.49 ± 0.013
313.15 K, 101.32 kPa, x1 = 0.7994	0.423 ± 0.011

CCCCCCCCCCCC(=O)OC + C1C[C@@H]2[C@H]3CC[C@H](C3)[C@@H]2C1
viscosity [mPa·s], 100 kPa
Conditions	x2 = 0.1012	x2 = 0.2004	x2 = 0.3001	x2 = 0.4004	x2 = 0.5021	x2 = 0.6003	x2 = 0.7003	x2 = 0.8001	x2 = 0.8991
293.15 K	3.062 ± 0.065	3.012 ± 0.064	2.973 ± 0.064	2.927 ± 0.063	2.896 ± 0.063	2.874 ± 0.063	2.864 ± 0.063	2.877 ± 0.064	2.909 ± 0.065
298.15 K	2.73 ± 0.058	2.69 ± 0.057	2.659 ± 0.057	2.625 ± 0.057	2.599 ± 0.056	2.585 ± 0.056	2.58 ± 0.057	2.595 ± 0.057	2.628 ± 0.059
303.15 K	2.454 ± 0.052	2.419 ± 0.052	2.397 ± 0.051	2.369 ± 0.051	2.349 ± 0.051	2.339 ± 0.051	2.338 ± 0.051	2.356 ± 0.052	2.388 ± 0.053
308.15 K	2.218 ± 0.047	2.191 ± 0.047	2.173 ± 0.047	2.152 ± 0.046	2.134 ± 0.046	2.129 ± 0.046	2.13 ± 0.047	2.149 ± 0.048	2.183 ± 0.049
313.15 K	2.018 ± 0.043	1.994 ± 0.043	1.98 ± 0.042	1.963 ± 0.042	1.951 ± 0.042	1.946 ± 0.042	1.949 ± 0.043	1.969 ± 0.044	2.001 ± 0.045
318.15 K	1.844 ± 0.039	1.824 ± 0.039	1.813 ± 0.039	1.799 ± 0.039	1.789 ± 0.039	1.787 ± 0.039	1.791 ± 0.039	1.811 ± 0.04	1.841 ± 0.041
323.15 K	1.693 ± 0.036	1.676 ± 0.036	1.668 ± 0.036	1.656 ± 0.036	1.647 ± 0.036	1.647 ± 0.036	1.652 ± 0.036	1.672 ± 0.037	1.702 ± 0.038

CCOc1ccccc1 + CC1COC(=O)O1
viscosity [mPa·s], 101.33 kPa
Conditions	x2 = 0.1218	x2 = 0.2226	x2 = 0.3591	x2 = 0.4874	x2 = 0.5257	x2 = 0.5674	x2 = 0.6723	x2 = 0.7807	x2 = 0.8898	x2 = 0.9431
293.15 K	1.338 ± 0.015	1.436 ± 0.016	1.586 ± 0.018	1.739 ± 0.02	1.789 ± 0.02	1.837 ± 0.021	1.985 ± 0.023	2.17 ± 0.025	2.405 ± 0.027	2.544 ± 0.029
303.15 K	1.119 ± 0.013	1.202 ± 0.014	1.316 ± 0.015	1.44 ± 0.016	1.474 ± 0.017	1.516 ± 0.017	1.63 ± 0.019	1.773 ± 0.02	1.96 ± 0.022	2.078 ± 0.024
313.15 K	0.945 ± 0.011	1.013 ± 0.012	1.11 ± 0.013	1.215 ± 0.014	1.246 ± 0.014	1.278 ± 0.015	1.373 ± 0.016	1.495 ± 0.017	1.651 ± 0.019	1.742 ± 0.02

CCOC(C)=O + CC#N
303.15 K, 101.33 kPa
Conditions	viscosity [mPa·s]
x2 = 0.0931	0.3988 ± 0.0035
x2 = 0.1928	0.3934 ± 0.0035
x2 = 0.298	0.3881 ± 0.0035
x2 = 0.3925	0.3819 ± 0.0035
x2 = 0.4985	0.3753 ± 0.0034
x2 = 0.5974	0.3676 ± 0.0034
x2 = 0.6982	0.3591 ± 0.0034
x2 = 0.8001	0.3486 ± 0.0033
x2 = 0.8988	0.3402 ± 0.0033

OCC(O)CO + CC(=O)N(C)C
viscosity [mPa·s], 101 kPa
Conditions	x1 = 0.124	x1 = 0.241	x1 = 0.353	x1 = 0.459	x1 = 0.56	x1 = 0.656	x1 = 0.748	x1 = 0.836	x1 = 0.92
303.15 K	2.21 ± 0.04	3.92 ± 0.07	7.04 ± 0.12	12.8 ± 0.2	29.9 ± 0.5	61.6 ± 1	120.7 ± 3	204.4 ± 7	335.7 ± 15
318.15 K	1.78 ± 0.03	3.01 ± 0.05	4.79 ± 0.08	7.81 ± 0.13	17.6 ± 0.3	26.3 ± 0.4	43.2 ± 0.7	75.9 ± 1.3	117.4 ± 2.8
